Results: paper PMC10149936, “Cofilin activation in pancreatic acinar cells plays a pivotal convergent role for mediating CCK-stimulated enzyme secretion and growth” (Frontiers in Physiology, 2023)

How the values were obtained:
[1] = tested on: cofilin (pS3) in rat pancreatic acini; assay: cofilin activation (phospho-pS3 cofilin Western blot) in isolated rat pancreatic acini; format: cell-based; conditions: for effect on basal phosphorylation of cofilin: SE 50 µM 3 h or D3 25 µM 1 h
Description: (§1) Pancreatic acini preparations were obtained by collagenase digestion as previously described ([Bissonnette et al., 1984]; [Sato et al., 1989]; [Ramos-Alvarez and Jensen, 2018]). After collagenase digestion, dispersed acini were preincubated with different inhibitors in standard incubation solution ([Ramos-Alvarez and Jensen, 2018]; [Ramos-Ãlvarez et al., 2020]) for 3 h at 37°C under conditions specific for PKD/PKC, Src, PI3K, MAPKs, SSH1, LIMK, cofilin, other phosphatases and PAK4 inhibitors, as described previously ([Ramos-Alvarez and Jensen, 2018]; [Ramos-Ãlvarez et al., 2020]). Isolated acini and CCK1-R/Panc-1 cells (M&M 2.2.1) were also preincubated with two SSH1 inhibitors, D3 (25 μM, 1 h) ([Li et al., 2015]) or SE (50 μM, 3 h for acini; 24 h for CCK1-R/Panc-1 cells) ([Lee et al., 2017]). After preincubation, 1 mL aliquots of dispersed acini were incubated at 37°C for 3–15 min with CCK-8 (0.3 nM or 100 nM), for 5–15 min with TPA (1 µM) or without stimulants, used as control. Cells were lysed in lysis buffer (50 mM Tris/HCl pH 7.5, 150 mM NaCl, 1% Triton X-100, 1% deoxycholate, 0.1% sodium azide, 1 mM EGTA, 0.4 mM EDTA, 0.2 mM sodium orthovanadate, 1 mM PMSF, and one protease inhibitor tablet per 10 mL). After sonication, lysates were centrifuged at 10,000×g for 15 min at 4°C and protein concentration was measured using the Bio-Rad protein assay reagent. Finally, cells were processed as below for Western blotting.
(§2) Both concentrations of CCK-8 were used because CCK-8 is reported to have different responses with physiological and supraphysiological concentrations contributing to physiological and pathophysiological processes such as pancreatitis ([Dufresne et al., 2006]).
(§3) Western blotting and immunoprecipitation were performed as described previously ([Ramos-Alvarez and Jensen, 2018]). Whole cell lysates were subjected to SDS-PAGE using 4%–20% Tris–Glycine gels. […] Finally, membranes were then washed again twice in blocking buffer for 4 min, twice in washing buffer for 4 min, incubated for 4 min with chemiluminescence detection reagents. The intensity of the protein bands was measured using GeneTools software from Syngene, which were assessed in the linear detection range.
All experiments were performed at least 3 times. Data are presented as mean ± SEM and were analyzed with the non-parametric Kruskal–Wallis analysis (data was not normally distributed) and the Dunn’s multiple comparison test using the GraphPad Prism 8.0 software. P values < 0.05 were considered significant.
(A) Isolated pancreatic acini were incubated in the absence or presence of CCK-8 (100 nM), carbachol (1 μM), bombesin (1 nM), secretin (1 nM) or VIP (1 nM) for 1 min and then lysed. (B) Isolated pancreatic acini were incubated in the absence or presence of CCK-8 and CCK-JMV (at the indicate concentrations) for 3 min and then lysed. Western blots were analyzed using anti-pS3 cofilin, which mediates the activation state of cofilin. Bands were visualized using chemiluminescence and quantified by densitometry.

[2] = tested on: LIMK (pT508) in pancreatic acini; assay: LIMK phosphorylation (pT508 LIMK Western blot) in isolated rat pancreatic acini; format: cell-based; conditions: for effect on basal phosphorylation of LIMK: SE 50 µM 3 h or D3 25 µM 1 h, no stimulant
Description: as §1, §2, §3
Isolated pancreatic acini were incubated with either no addition (control), CCK-8 (0.3 and 100 nM) or TPA (1 µM) for the indicated periods of time and then lysed. Western blots were analyzed using anti-pT508 LIMK, anti-pS3 cofilin and anti-pS978 SSH1, which […] the activation states of LIMK, cofilin and SSH1. Bands were visualized using chemiluminescence and quantified by densitometry.

[3] = tested on: cofilin (pS3) in CCK1-R/Panc-1 cells; assay: cofilin activation (pS3 cofilin Western blot) in CCK1-R/Panc-1 cells; format: cell-based, human; conditions: CCK-8 0.3 or 100 nM; D3 25 µM 1 h or SE 50 µM 24 h
Description: CCK1 receptor transfected Panc-1 (CCK1-R/Panc-1) cells ([Berna et al., 2009]) and AR42J cells, were cultured in DMEM supplemented with 10% FBS and 1% penicillin/streptomycin and in RPMI supplemented with 10% FBS and 1% penicillin/streptomycin, respectively; and split 1:10 weekly with trypsin/EDTA, after washing in PBS. Finally, cells were seeded in 6-well plate and serum starved overnight, until they were 80% confluent. Cells were incubated at 37°C in 5% CO2/95% air. AR42J cells were treated with 100 nM dexamethasone for 72°h, which stimulates their differentiation into exocrine cells ([Logsdon, 1986]).
Pancreatic acini preparations were obtained by collagenase digestion as previously described ([Bissonnette et al., 1984]; [Sato et al., 1989]; [Ramos-Alvarez and Jensen, 2018]). […] Isolated acini and CCK1-R/Panc-1 cells (M&M 2.2.1) were also preincubated with two SSH1 inhibitors, D3 (25 μM, 1 h) ([Li et al., 2015]) or SE (50 μM, 3 h for acini; 24 h for CCK1-R/Panc-1 cells) ([Lee et al., 2017]). […] After sonication, lysates were centrifuged at 10,000×g for 15 min at 4°C and protein concentration was measured using the Bio-Rad protein assay reagent. […]
Western blotting and immunoprecipitation were performed as described previously ([Ramos-Alvarez and Jensen, 2018]). […] The intensity of the protein bands was measured using GeneTools software from Syngene, which were assessed in the linear detection range. […]
FIGURE 3 Effect of two SSH1 inhibitors, D3 and SE (A–C), or SSH1 siRNA (D), on the ability of CCK-8 (0.3 and 100 nM) to activate LIMK and cofilin in pancreatic acini (A/B) and activate cofilin in CCK1-R/Panc-1 cells (C/D). […] Western blots were analyzed using anti-pS3 cofilin and anti-pT508 […], and the knockdown effect of SSH1 was confirmed by Western blots using SSH1 (C-term) antibody. Bands were visualized using chemiluminescence and quantified by densitometry. […] Results are expressed as % of basal stimulation of the control group. *, p < 0.05 compared to the control group; ∞, p < 0.05 compared to stimulants without inhibitors. […]

[4] = tested on: cofilin / phospho-PP2A association; assay: co-immunoprecipitation of cofilin with phospho-PP2A (pY307) in pancreatic acini; format: cell-based, rat; conditions: legend: kbNB 0.1 µM or PP2 10 µM, 3 h; CCK-8 100 nM, TPA 1 µM
Description: For co-immunoprecipitation, 600 μg of protein was incubated with 15 μL of the anti-cofilin antibody (Santa Cruz Biotechnology, Inc. Dallas, TX) and 25 μL of protein A/G agarose beads (Thermo-Fisher Scientific. Waltham, MA) overnight at 4°C under agitation. Samples were washed three times with lysis buffer, re-suspended in 12.5 μL of Sample Buffer, Laemlii 2x concentrate and boiled for 5 min before western blotting.
FIGURE 8 Effect of a PKD inhibitor, kbNB, or a Src inhibitor, PP2, on the ability of CCK-8 (100 nM) and TPA (1 µM) to stimulate the association of cofilin with either phospho-PP2A (A) or total PP2A (B). Isolated pancreatic acini were incubated in the absence or presence of kbNB (0.1 µM) or PP2 (10 µM) for 3 h and then incubated with no addition (control), CCK-8 (100 nM, 3 min) or TPA (1 μM, 5 min), and then lysed. Equal amounts of protein were co-immunoprecipitated with an anti-cofilin (Santa Cruz, SC-376476) and then subjected to Western blots using anti-pY307 PP2A and anti-PP2A. Bands were visualized using chemiluminescence and quantified by densitometry. Top: Results of a representative blot of four independent experiments are shown. Bottom: Means ± S.E. of at least 4 independent experiments. Results are expressed as % of basal stimulation of the control group. N.S., No significant.

PP2A / PP1 = conditions: low concentrations; ref Ishihara et al., 1989; Takai et al., 1992; Lutz et al., 1993; Schmidt et al., 1994; Walsh et al., 1997; cited from earlier work
Excerpt: (Figures 5, 6) In human T lymphocytes, neurons, the 293 T cell line (human embryonic kidney 293 cells) and HeLa cells, it is reported that activation of cofilin can occur due its dephosphorylation through the co-stimulation activation of accessory receptors (e.g.,.CD2, CD3 or CD28) by CD3xCD28 mAb, with Endothelin-1 (ET-1), and the Ca^2+ ionophore A23187, which is mediated by activation of serine protein phosphatases ([Ambach et al., 2000]; [Wang et al., 2005]; [Tam et al., 2019]). Therefore, to explores the possible role of the protein phosphatases PP1, PP2A, PP2B in CCK-8-induced activation ...

p38α = conditions: reference not given; cited from earlier work
p38β = conditions: reference not given; cited from earlier work
[5] = Rattus norvegicus, CCK-8 0.3 or 100 nM, 5 min, SE 50 µM 3 h or D3 25 µM 1 h preincubation, n at least 4, read-out: inhibition of CCK-8-caused cofilin dephosphorylation
[6] = Rattus norvegicus, CCK-8 0.3 or 100 nM, 5 min, SE 50 µM 3 h or D3 25 µM 1 h preincubation, read-out: inhibition of CCK-8's dephosphorylation of LIMK

Cc1ccccc1N1C(=O)/C(=C/c2ccc(OCc3ccc(C(=O)O)cc3)cc2)SC1=S [D3, (Z)-4-((4-((4-oxo-2-thioxo-3-(o-tolyl)thiazolidin-5-ylidene)methyl)phenoxy)methyl)benzoic acid]
inhibition at 25 µM [1, 5]: 32 to 49% | effect on basal phosphorylation of cofilin ([1]; no stimulant): Neither D3 nor SE affected the basal phosphorylation of LIMK or cofilin | inhibition at 25 µM [2, 6]: 20% | effect on basal phosphorylation of LIMK [2]: Neither D3 nor SE affected the basal phosphorylation of LIMK or cofilin | inhibition of CCK-8-induced dephosphorylation of cofilin [3]: completely inhibited

O=C(O)c1cc(O)c2c(c1)[C@H]([C@H]1c3cc(C(=O)O)cc(O)c3C(=O)c3c(O[C@@H]4O[C@H](CO)[C@@H](O)[C@H](O)[C@H]4O)cccc31)c1cccc(O[C@@H]3O[C@H](CO)[C@@H](O)[C@H](O)[C@H]3O)c1C2=O [SE, Sennoside A]
inhibition at 50 µM [1, 5]: 30 to 33% | effect on basal phosphorylation of cofilin ([1]; no stimulant): Neither D3 nor SE affected the basal phosphorylation of LIMK or cofilin | inhibition at 50 µM [2, 6]: 20% | effect on basal phosphorylation of LIMK [2]: Neither D3 nor SE affected the basal phosphorylation of LIMK or cofilin | inhibition of CCK-8-induced dephosphorylation of cofilin [3]: completely inhibited

CN(C)CCCn1cc(C2=C(c3c[nH]c4ccccc34)C(=O)NC2=O)c2ccccc21 [GF109203X]
effect on basal phosphorylation level of cofilin ([1]; GFX 5 µM, kbNB 0.1 µM or PP2 10 µM, 3 h, no stimulant): None of these inhibitors altered the basal phosphorylation level of cofilin | reversal of cofilin dephosphorylation stimulated by CCK-8 and TPA ([1]; GFX 5 µM, kbNB 0.1 µM or PP2 10 µM, 3 h, CCK-8 100 nM 3 min, TPA 1 µM 5 min): completely reversed | inhibition of decrease in phospho-PP2A co-immunoprecipitation stimulated by CCK-8 and TPA [4]: completely inhibited

COC[C@@H]([C@H](O)[C@H](O)C(=O)NCC[C@H](C)c1nc(/C=C/C[C@@H]2O[C@]3(C[C@@H](O)[C@@H]2C)O[C@H]([C@H](C[C@H](O)[C@H](C)[C@H](O)[C@H](C)/C=C(C)/C(C)=C/C=C/C(C)=C\C#N)OC)[C@H](OP(=O)(O)O)C3(C)C)co1)N(C)C [calyculin A]
decrease of basal level of cofilin phosphorylation ([1]; calyculin A 1 nM or okadaic acid 10 nM, 3 h, no stimulant): 24% | inhibition of cofilin activation stimulated by CCK-8 ([1]; calyculin A 1 nM or okadaic acid 10 nM, 3 h, CCK-8 0.3 and 100 nM 3 min): completely inhibited | selectivity PP1/PP2A/PP2B (PP2A / PP1): inhibits equally PP1 and PP2A activity, but not PP2B

Oc1ccc(-c2nc(-c3ccncc3)c(-c3ccc(F)cc3)[nH]2)cc1 [SB202190]
reversal of cofilin dephosphorylation by CCK-8 ([1]; Wortmannin 1 µM, LY294002 100 µM, SB202190 10 µM, U0126 10 µM, Y-27632 10 µM 1 h, SP600125 20 µM 3 h, CCK-8 0.3 and 100 nM 3 min): not PI3K or p38 | IC50 (p38α): […] | IC50 (p38β): […]
